Test: Effect of co-administered extracts on the pharmacokinetics of theophylline in rats
Conditions: male, Wistar, rat, in vivo; for Cmax: Cmax of Theophylline; for AUC(0-inf): AUC0-∞ of Theophylline; for MRT: MRT of Theophylline
Experimental: Carpediol spissum (Batch No Ex 20404); Swedish Herbal Institute, Gothenburg, Sweden) as described above in Example 1. […] It was analyzed for purity by HPLC, Capillary electrophoresis, ^1H-NMR and ^13C-NMR. • (e) Internal standard: Methyl-4-hydroxybenzoate 99%, F.W. 152.15 Aldrich. • (f) Water, demonized and distilled. • (g) Water for High Performance Capillary Electrophoresis (HPCE), HEWLETT-PACKARD. • (h) Buffer pH=9.3 for HPCE (50 mM Borate). • (i) 0.1N Sodium Hydroxide Solution for HPCE. • (j) Chloroform HPLC grade. • (k) 2-Propanol spectrophotometric grade. • (l) Methanol Chromasorv.
Animals—In this study, 144 time-mated male Wistar rats were used. Breeder: Institute of Fine Organic Chemistry of the National Academy of Science, Yerevan. The initial weight of the animals: 130-170 g (mean weight 149.93±12.4 g). […] All animals were clinically examined upon arrival and any animal showing signs of abnormality or disease was excluded. Animals considered unsuitable for the study were replaced before the start. No animal was replaced following the start of the study.
Dosage and Administration—An appropriate amount of herbal extract was dissolved in distilled water and given at 10:00-10:30 am by oral gavage. Suspensions were shaken gently before oral administration. Suspensions were prepared fresh every day. Control animals were given an appropriate volume of drinking water. Blood samples from rats receiving the carrier only were also analyzed.
Groups of six animals were treated orally with water (10 ml×2 times per day) for three days. 60 minutes after last administration of water, a solution of Aminophylline (10 ml/kg) was given to each animal in dose of 240 mg/kg (corresponding to 192 mg/kg of Theophylline) and blood samples were taken 0.25, 0.5, 1.0, 2.0, 4.0, 6.0 and 8.0 hours after the theophylline administration. A separate group of animals was used for each time point.
It was administered orally in a volume of 10 ml/kg of body weight. Freshly prepared extract was administered two times daily for 3 consecutive days. Single dose—25 mg/kg, daily dose—50 mg/kg. 60 minutes after last administration, a water solution of Aminophylline (10 ml/kg) was given to each animal in dose of 240 mg/kg (corresponding to 192 mg/kg of Theophylline) and blood samples were taken 0.25, 0.5, 1.0, 2.0, 4.0, 6.0 and 8.0 hours after the theophylline administration. A separate group of animals was used for each time point.
One tablet of Jarsin 300 was suspended in 10 ml of water and administered two times daily for 3 consecutive days. 60 minutes after last administration, water solution of Aminophylline (10 ml/kg) was given to each animal in dose of 240 mg/kg (corresponding to 192 mg/kg of Theophylline) and blood samples were taken 0.25, 0.5, 1.0, 2.0, 4.0, 6.0 and 8.0 hours after the theophylline administration. A separate group of animals was used for each time point.
Sampling of blood and sample preparation—Animals were sacrificed by laboratory guillotine. Following decapitation, blood was collected separately in centrifuge tubes and centrifuged at 3000 rpm for 10 min. Blood serum was separated and 50 μl was taken for theophylline assay. Conservation of the samples: the centrifuge tubes were closed with caps, frozen and stored in a freezer for 1-3 days prior to bio-assay.
Analytical Method: Capillary Electrophoresis—A modified capillary electrophoresis method was used, using an internal standard and as a mobile phase 50 mM borate buffer (pH 9.3) without SDS.
Pre-assay preparation—The Ramzan et al. method (52) of extraction of theophylline from serum was modified as follows. 50 μl of blood serum was added to 10 μl of an internal standard methanol solution (methyl-paraben, 60 μg/ml) in centrifuge tube to obtain final concentration of methyl paraben 10 μg/ml. The solution was vortexed vigorously for 10 sec and 1 ml of solvent system of isopropanol. and chloroform in a 5:95 ratio was added for extraction.

[1] = Concentration of Theophylline in Rat Serum, Mean, Group 2 (CRE pretreatment 3 days), aminophylline 240 mg/kg p.o., mean n=6
[2] = Concentration of Theophylline in Rat Serum, Mean, Group 3 (Jarsin 300 pretreatment 3 days), aminophylline 240 mg/kg p.o., mean n=6
[3] = po, 240 mg/kg, Group 2 (CRE pretreatment), rats, calculated by mean concentrations
[4] = po, 240 mg/kg, Mean, Group 1 (water control), rats, mean of 6 series (column A)
[5] = po, 240 mg/kg, Mean, Group 2 (CRE pretreatment), rats, mean of 6 series (column A)
[6] = po, 240 mg/kg, Mean, Group 3 (Jarsin 300 pretreatment), rats, mean of 6 series (column A)
[7] = po, Group 3 (Jarsin 300 pretreatment), rats, calculated by mean concentrations
[8] = po, Mean, Group 3 (Jarsin 300 pretreatment), rats, mean of 6 series (column A)
[9] = po, Mean, Group 2 (CRE pretreatment), rats, mean of 6 series (column A)

SMILES: Cn1c(=O)c2[nH]cnc2n(C)c1=O [Theophylline, 1,3-dimethylxantin]
- concentration at 480 min (240 mg/kg, Level of theophylline in serum after 480 minutes, Group 1 (water control), rats): ~51000 ng/mL
- Cmax (Group 2 (CRE pretreatment), rats, calculated by mean concentrations, 60 minutes): 142000 ng/mL
- Cmax (Group 3 (Jarsin 300 pretreatment), rats, calculated by mean concentrations, 60 minutes): 41600 ng/mL
- concentration at 60 min (Concentration of Theophylline in Rat Serum, Group 2 (CRE pretreatment 3 days), aminophylline 240 mg/kg p.o., single rat): 109000 ng/mL
- concentration at 15 min (Concentration of Theophylline in Rat Serum, Group 3 (Jarsin 300 pretreatment 3 days), aminophylline 240 mg/kg p.o., single rat): 6640 ng/mL
- concentration at 15 min [1]: 128000 ng/mL
- concentration at 30 min [1]: 138000 ng/mL
- concentration at 60 min [1]: 142000 ng/mL
- concentration at 120 min [1]: 130000 ng/mL
- concentration at 240 min [1]: 103000 ng/mL
- concentration at 360 min [1]: 71000 ng/mL
- concentration at 480 min (Concentration of Theophylline in Rat Serum, Mean, Group 2 (CRE pretreatment 3 days), aminophylline 240 mg/kg p.o., 480 min, mean n=6): 31800 ng/mL
- concentration at 15 min [2]: 5170 ng/mL
- concentration at 30 min [2]: 25500 ng/mL
- concentration at 60 min [2]: 41600 ng/mL
- concentration at 120 min [2]: 31100 ng/mL
- concentration at 240 min [2]: 16500 ng/mL
- concentration at 360 min [2]: 15700 ng/mL
- concentration at 480 min (Concentration of Theophylline in Rat Serum, Mean, Group 3 (Jarsin 300 pretreatment 3 days), aminophylline 240 mg/kg p.o., 480 min, mean n=6): 9280 ng/mL
- concentration at 480 min (Theophylline concentration in serum after 480 minutes, Group 2 (rats treated with CRE)): ~32000 ng/mL
- concentration at 480 min (Theophylline concentration in serum after 480 minutes, Group 3 (rats treated with Jarsin 300)): ~9300 ng/mL
- AUC(0-inf) (po, 240 mg/kg, Group 1 (water control), rats, single series): 1090 µg·h/mL
- AUC(0-inf) [3]: 956 µg·h/mL
- AUC(0-inf) (po, 240 mg/kg, Mean, Group 1 (water control), rats, mean of 6 series): 1020 µg·h/mL
- AUC(0-inf) [4]: 1020 ± 109 µg·h/mL
- AUC(0-inf) [5]: 920 ± 128 µg·h/mL
- AUC(0-inf) (po, 240 mg/kg, Mean, Group 3 (Jarsin 300 pretreatment), rats, mean of 6 series): 214 µg·h/mL
- Cmax [4]: 195000 ng/mL
- Cmax [5]: 169000 ± 14400 ng/mL
- Cmax [6]: 43900 ng/mL
- MRT (po, 240 mg/kg, Group 1 (water control), rats, calculated by mean concentrations): 6.83 h
- MRT [3]: 5.14 h
- MRT [4]: 6.62 h
- MRT [5]: 4.45 ± 0.696 h
- MRT [6]: 5.44 h
- half-life (po, 240 mg/kg, T1/2 of Theophylline, Group 1 (water control), rats, calculated by mean concentrations): 4.66 h
- half-life (po, 240 mg/kg, T1/2 of Theophylline, Group 2 (CRE pretreatment), rats, calculated by mean concentrations): 3.39 h
- half-life (po, 240 mg/kg, T1/2 of Theophylline, Mean, Group 2 (CRE pretreatment), rats, mean of 6 series (column A)): 2.81 ± 0.404 h
- half-life (po, 240 mg/kg, t1/2 of Theophylline, Mean, Group 1 (water control), rats, mean of 6 series (column A)): 4.5 h
- half-life (po, 240 mg/kg, t1/2 of Theophylline, Mean, Group 3 (Jarsin 300 pretreatment), rats, mean of 6 series (column A)): 3.55 h
- AUC(0-inf) (po, Group 1 (water control), rats, calculated by mean concentrations): 1030 µg·h/mL
- AUC(0-inf) [7]: 208 µg·h/mL
- AUC(0-inf) (po, Mean, Group 2 (CRE pretreatment), rats, mean of 6 series): 920 µg·h/mL
- AUC(0-inf) [8]: 214 ± 31 µg·h/mL
- Cmax (po, Group 2 (CRE pretreatment), rats, single series): 158000 ng/mL
- Cmax (po, Group 3 (Jarsin 300 pretreatment), rats, calculated by mean concentrations, 60 minutes): 41600 ng/mL
- Cmax [9]: 169000 ng/mL
- Cmax [8]: 43900 ± 8490 ng/mL
- MRT [7]: 5.36 h
- MRT [9]: 4.45 h
- MRT [8]: 5.44 ± 0.559 h
- half-life (po, T1/2 of Theophylline, Group 3 (Jarsin 300 pretreatment), rats, calculated by mean concentrations): 3.43 h
- half-life (po, T1/2 of Theophylline, Mean, Group 2 (CRE pretreatment), rats, mean of 6 series (column A)): 2.81 h
- half-life (po, t1/2 of Theophylline, Mean, Group 3 (Jarsin 300 pretreatment), rats, mean of 6 series (column A)): 3.55 ± 0.549 h

Source: patent US6905706B2, “Medicinal herbal extract carpediol for treating depression” (Swedish Herbal Institute, priority 2002, dated 2005)
